Experimental data reported in patent US20120295893A1, “COMPOSITIONS AND METHODS OF COUNTERACTING RESIDUAL SEDATIVE EFFECTS OF SLEEP/ HYPNOTIC DRUGS” (COERULEUS LTD., priority 2009, published 2012).
“And” between values parts separate entries of the source, which are not always exact repeats. Equal entries are not always repeated.

Key:
[1] = system: sleep/hypnotic effect of zolpidem or brotizolam; experiment: Clinical study: digit symbol substitution test (DSST); conditions: Baseline sleep (after hypnotic, before oral spray)
[2] = system: sleep/hypnotic effect of zolpidem or brotizolam; experiment: Clinical study: Profile Of Mood States (POMS) Brief form; conditions: Baseline sleep (after hypnotic, before oral spray)
[3] = system: sleep/hypnotic effect of zolpidem or brotizolam; experiment: Clinical study: Visual Analogue Scale (sleepiness/vigilance, ability to focus, effectiveness); conditions: Baseline sleep (after hypnotic, before oral spray)
[4] = system: sleep/hypnotic effect of zolpidem or brotizolam; experiment: Clinical study: immediate Word Recall Test (iWRT); conditions: Baseline sleep (after hypnotic, before oral spray)
[5] = Clinical study: vital signs and safety assessments; conditions: Baseline sleep (after hypnotic, before oral spray); for Pulse rate: 10 subjects per hypnotic
[6] = system: Sprague-Dawley™ (SD) rats; experiment: Preliminary phase: induction of 'Sleep' by IV diazepam (dose finding); conditions: for mortality after diazepam injection: FDC = Found Dead in the Cage
[7] = system: diazepam-induced sedative-hypnotic effects; experiment: Main phase: Sleeping Time (regaining of Righting Reflex) after diazepam induction; assay type: in vivo, rat; conditions: IV, two administrations at 2 min interval after diazepam
Method: (§1) The main phase consisted of 4 groups of n=8 male and female SD rats/group. Induction of sedative-hypnotic effects, as measured by Sleeping Time and locomotor activity, was carried out by two intravenous injections of diazepam at an interval of approximately 2 minutes. The Test, Reference and Control Items were administered twice at interval of 2 minutes as well, about 5 minutes after the second dose of diazepam. Both Test Items FLUMUP-F22 (F22, Table 26 below) and FLUMUP-F26 (F26, Table 26 below) were administered by the sublingual route at a constant dose volume of 0.1 ml/animal per administration. An additional group was administered with FLUMUP Placebo under identical experimental conditions and served as a Control group. A fourth group was subjected to IV injection of the Reference Item under identical experimental conditions. Animals were placed in the activity cage immediately following arousal from ‘Sleep’ or 10 minutes post the second dose of the respective treatment if arousal was not evident.
Males were injected with an initial dose level of 15 mg/kg and approximately 2 minutes later an addition of 5 mg/kg was administered. […]
Sleeping time was determined for all animals.
Evaluation was based on the relative recorded changes in the measured Sleeping Time and locomotor activity, obtained from the Test & Reference Items-treated animals vs. those of the Control Item group. […]

[8] = system: diazepam-induced sedative-hypnotic effects; experiment: Main phase: locomotor activity in activity cage after diazepam induction; assay type: in vivo, rat
Method: as §1
Males were injected with an initial dose level of 15 mg/kg and approximately 2 minutes later an addition of 5 mg/kg was administered. Females were injected with an initial dose level of 20 mg/kg and approximately 2 minutes later an addition of 5 mg/kg.
(i) The Test and Control Items were administered by the sublingual route twice at an interval of approximately 2 minutes about 5 minutes post the second injection of diazepam. (ii) The Reference Item flumazenil USP was injected twice intravenously at an interval of approximately 2 minutes about 5 minutes post the second injection of diazepam. The Test, Reference and Control Items were administered at a constant dose volume of 0.1 ml/animal per administration over approximately 15 seconds.
Each rat was placed in the center of a special designed commercial activity cage, measuring 40×40×46 cm (TruScan Photo Beam Activity System-Coulbourn Instruments, Allentown, Pa., USA) for a duration of 15 minutes.
Evaluation was based on the relative recorded changes in the measured Sleeping Time and locomotor activity, obtained from the Test & Reference Items-treated animals vs. those of the Control Item group. Data analysis of all measurable parameters was performed by the use of the following methods in order to determine significance of treatment effects: Software: GraphPad Instat®—Version 3.02 (Statistical Method: 1-Way ANOVA; Dunnett Multiple Comparisons Test for locomotor activity parameters; Kruskal-Wallis Test for Sleeping Time data) Microsoft” Excel 2000.

[9] = in vivo, po; cited from earlier work

Row | SMILES | DSST [1] | POMS- fatigue [2] | POMS-Alertness [2] | Effectiveness [3] | Focus ability [3] | Vigilance [3] | iWRT [4] | Diastolic BP [5] | Systolic BP [5] | Pulse rate [5] | other results
1 | Cc1nnc2n1-c1sc(Br)cc1C(c1ccccc1Cl)=NC2 [Brotizolam] | 76.3 ± 7.7 | 7.2 ± 1.2 | 4.3 ± 1.0 | 2.3 ± 0.3 | 2.4 ± 0.4 | 2.3 ± 0.4 | 7.6 ± 1.3 | 69.0 ± 2.8 | 116.9 ± 4.8 | 69.8 ± 1.8 | –
2 | CN1C(=O)CN=C(c2ccccc2)c2cc(Cl)ccc21 [Diazepam] | – | – | – | – | – | – | – | – | – | – | additional duration of 'Sleep' after supplement dose ([6]; female rat, 20 mg/kg then supplement 5 mg/kg IV): 1180 s; mortality after diazepam injection ([6]; female rat, single dose 25 mg/kg IV, 25 mg/kg): died immediately following injection and FDC; mortality after diazepam injection ([6]; female rat, single dose 25 mg/kg IV, listed as diazepam, 25 mg/kg): death; duration of induced 'Sleep' ([6]; female rats, diazepam 20 mg/kg IV, individual animals): 240 s and 180 s; additional duration of 'Sleep' after supplement dose ([6]; male rat, 15 mg/kg then supplement 5 mg/kg IV): 850 s; duration of induced 'Sleep' ([6]; male rat, diazepam 10 mg/kg IV, single animal): 46 s; duration of induced 'Sleep' ([6]; male rat, diazepam 15 mg/kg IV, single animal): 130 s; duration of induced 'Sleep' ([6]; male rat, diazepam 20 mg/kg IV, single animal): 1700 s; mortality after diazepam injection ([6]; male rat, single dose 20 mg/kg IV, 20 mg/kg): died immediately following injection and FDC; mortality after diazepam injection ([6]; male rat, single dose 20 mg/kg IV, listed as diazepam, 20 mg/kg): death
3 | CCOC(=O)c1ncn2c1CN(C)C(=O)c1cc(F)ccc1-2 [Reference Item] | – | – | – | – | – | – | – | – | – | – | regaining of Righting Reflex (Sleeping Time) [7]: regained their righting reflex very shortly following injection; area of the cage where rats moved or stayed ([8]; Area 1 peripheries (normal behavior), Area 2 central, FIG. 11): stayed in the central area of the cage; locomotor activity ([8]; after regaining righting reflex, males and females): very low and similar to that of the control animals; total distance versus Control group ([8]; female rats, 15 min session, diazepam 20+5 mg/kg IV): No statistical significant difference; mean group time spent in the extent of the activity cage versus controls ([8]; male rats): relatively higher; total distance, mean group values versus Control group ([8]; male rats, 15 min session, diazepam 15+5 mg/kg IV): only one out of the four males exhibited higher values
4 | Cc1ccc(-c2nc3ccc(C)cn3c2CC(=O)N(C)C)cc1 [Zolpidem] | 62.5 ± 3.6 | 9.3 ± 1.4 | 1.9 ± 1.0 | 1.5 ± 0.4 | 1.5 ± 0.4 | 1.4 ± 0.3 | 4.1 ± 0.3 | 71.4 ± 1.9 | 119.5 ± 4.0 | 77.5 ± 3.5 | oral bioavailability [9]: 70%
